Literature values, collected in PMC8398451, “Molecular Engineering of Curcumin, an Active Constituent of Curcuma longa L. (Turmeric) of the Family Zingiberaceae with Improved Antiproliferative Activity” (Plants, 2021).

Experiments:
Parameters in all cases: method as in earlier work
Conditions in all cases: cited from earlier work; for Mean % GI: 10 µM, retrieved from NCI data-ware
[1] = tested on: Renal Cancer cell line panel
Melanoma cell line panel = tested on: Melanoma cell line panel
[2] = tested on: Colon Cancer cell line panel
[3] = tested on: Ovarian Cancer cell line panel
Leukemia cell line panel = tested on: Leukemia cell line panel
[4] = tested on: Prostate Cancer cell line panel
[5] = tested on: CNS Cancer cell line panel
[6] = tested on: Non-Small Cell Lung Cancer cell line panel
[7] = tested on: Breast Cancer cell line panel
[8] = five-dose assay, curcumin NCI data

| Structure (SMILES) | Mean % GI [1] [%] | GI50 [1, 8] [µM] | Mean % GI (Melanoma cell line panel) [%] | GI50 (Melanoma cell line panel; [8]) [µM] | Mean % GI [2] [%] | GI50 [2, 8] [µM] | Mean % GI [3] [%] | GI50 [3, 8] [µM] | Mean % GI (Leukemia cell line panel) [%] | GI50 (Leukemia cell line panel; [8]) [µM] | Mean % GI [4] [%] | GI50 [4, 8] [µM] | Mean % GI [5] [%] | GI50 [5, 8] [µM] | Mean % GI [6] [%] | GI50 [6, 8] [µM] | Mean % GI [7] [%] | GI50 [7, 8] [µM] |
| --- | --- | --- | --- | --- | --- | --- | --- | --- | --- | --- | --- | --- | --- | --- | --- | --- | --- | --- |
| COc1cc(/C=C/C(=O)CC(=O)/C=C/c2ccc(O)c(OC)c2)ccc1O [Cur, Curcumin] | 45.35 | 8.9 | 54.63 | 5.9 | 95.76 | 4.7 | 44.66 | 9.1 | 97.76 | 3.7 | 61.3 | 11.2 | 60.75 | 5.8 | 49.27 | 9.2 | 56.1 | 8.1 |
| COc1cc2ncnc(Nc3ccc(F)c(Cl)c3)c2cc1OCCCN1CCOCC1 [Gefitinib] | 77.89 |  | 44.99 |  | 52.19 |  | 60.93 |  | 79.68 |  | 59.6 |  | 46.13 |  | 63.97 |  | 52.88 |  |
